In patent publication US20240124503A1, “HETEROAROMATIC PHOSPHONIUM SALTS AND THEIR USE TREATING CANCER” (FLORATEK PHARMA S.A., priority 2021, published 2024) one finds IC50 data, which are given here for 2 molecules.

As a reminder, the IC50 is the concentration at which inhibition is half-maximal.

Common to all, as to type: cell-based
The test system of experiment [1] is colon cancer cell. The experiment in a line: Cell viability, colon cancer cells (panel statement). The note with it: summary of Table 6; read-out: IC50, colon cancer cell growth. The method, then:
(§1) Antitumor activity of the compounds and doxorubicin as a positive control was assessed by using the CellTiter-Blue Cell Viability Assay (Promega, #G8082) or CellTiter-Glow® Luminescent Cell Viability assay (Promega #G7572) according to the manufacturer's instructions. The compounds were tested at 5 or 6 concentrations in half-log increments (highest concentration 30 μM or 100 μM) in duplicate or triplicate well conditions.
(§2) Tumor cells were grown at 37° C. in a humidified atmosphere with 5% CO2 in RPMI 1640 or DMEM medium, supplemented with 10% (v/v) fetal calf serum and 50 μg/ml gentamicin for up to 20 passages, and were passaged once or twice weekly. Cells were harvested using TrypLE or PBS buffer containing 1 mM EDTA, and the percentage of viable cells was determined using a CASY Model TI cell counter (OMNI Life Science). Cells were harvested from exponential phase cultures, counted and plated in 96 well flat-bottom microtiter plates at a cell density depending on the cell line's growth rate (4,000-20,000 cells/well depending on the cell line's growth rate, up to 60,000 for hematological cancer cell lines) in RPMI 1640 or DMEM medium supplemented with 10% (v/v) fetal calf serum and 50 μg/ml gentamicin (140 μl/well). […] Viability of cells was quantified by the CellTiter-Blue® cell viability assay (Promega G8081) or CellTiter-Glow® Luminescent Cell Viability assay (Promega #G7572). […]

Experiment [2] relates to U-118. As to the kind of experiment: Cell viability assay, U-118. The note with it: brain carcinoma cell line U-118. The method, then:
as §1, §2

The subject of experiment [3] is pancreatic cancer cell. The experiment in a line: Cell viability, pancreatic cancer cells (panel statement). The settings on record: text summary of Tables 18A and 18B, read-out: IC50, pancreatic cancer cell growth. As for the experimental part: as §1, §2
Experiment [4] concerns ZR-75-1. The experiment in a line: Cell viability assay, ZR-75-1. The settings on record: Homo sapiens; breast carcinoma cell line ZR-75-1. The method, then: as §1, §2
For experiment [5], the system named is CO-04-0701. As to the kind of experiment: Cell viability, colon PDX CO-04-0701. As for the experimental part: (§3) PDX-derived cell cultures were obtained from tumors explanted from mice and isolated by mechanical and enzymatic dissociation. […] Cells were harvested and seeded in 96-wells plates at a density of 1.25 to 5×10^3 cells/well for cytotoxicity assays. Cells were incubated 48 h at 37° C. prior to addition of test molecules and vehicle (DMSO, 0.1%) at desired final concentrations. Cell viability was assessed before drugs' addition (To) and 5 days after test molecules addition by measuring ATP cell content using CellTiter-Glo® Luminescent Cell Viability Assay (Promega) according to the manufacturer's instructions. Luciferase activity was measured on a luminometer (PerkinElmer® EnVision™). Each concentration of compounds was tested in triplicate.
(§4) Viability was calculated as a percentage of ATP value compared to vehicle treated controls.
(§5) For PDX primary cell cultures, the tumour tissue was washed with PBS containing antibiotic-antimycotic and non-tumour tissue and necrotic tumour tissues were separated. The tumour tissue was transferred to a new dish and cut into 1˜2 mm^3 fragments, resuspended in RPMI-1640 medium and centrifuged at 1,200 rpm for 6 min at room temperature. The pelleted material was resuspended with 15 mL of Tumour Cell Digestion Solution and incubated at 37° C. for 1 hour with agitation. […]

Experiment [6] deals with U-251. The experiment in a line: Cell viability assay, U-251. The settings on record: Homo sapiens; brain carcinoma cell line U-251. As for the experimental part: as §1, §2
Experiment [7] deals with lung PDX. The experiment in a line: Cell viability, lung PDX (panel statement). The settings on record: text summary of Table 15; read-out: IC50, lung PDX growth. As for the experimental part: as §3, §4, §5
Experiment [8] concerns SK-N-AS. The experiment in a line: Cell viability assay, SK-N-AS. The note with it: Homo sapiens; brain carcinoma cell line SK-N-AS. As for the experimental part:
as §1, §2

The subject of experiment [9] is pancreatic PDX. As to the kind of experiment: Cell viability, pancreatic PDX (panel statement). The settings on record: Table 19; read-out: IC50, pancreatic PDX growth. As for the experimental part: as §3, §4, §5
The test system of experiment [10] is bile duct PDX. As to the kind of experiment: Cell viability, bile duct PDX (panel statement). The note with it: summary of Table 3; read-out: IC50, bile duct PDX growth. The method, then: as §3, §4, §5
Experiment [11] relates to Mia-Pa-Ca-2. As to the kind of experiment: Cell viability assay, Mia-Pa-Ca-2. The settings on record: Homo sapiens, MIA PaCa-2; pancreatic carcinoma cell line Mia-Pa-Ca-2. As for the experimental part: as §1, §2
Experiment [12] concerns Panc-1. As to the kind of experiment: Cell viability assay, Panc-1. The settings on record: pancreatic carcinoma cell line Panc-1. The method, then:
as §1, §2

Consider `COc1c(O)ccc2c(=O)c(O)c(-c3ccc(CCCC[P+](c4ccccc4)(c4ccccc4)c4ccccc4)cc3)oc12` [SND190, (4-(4-(3,7-Dihydroxy-8-methoxy-4-oxo-4H1-chromen-2-yl)phenyl)butyl)triphenylphosphonium bromide], for which the IC50 in experiment [1] was under 20 µM; in [2] it was 9.4 µM; in experiment [3] it was under 20 µM; in experiment [4], 3.5 µM; in experiment [5] it was 14.7 µM; in experiment [6] it was 7.54 µM. The IC50 in [7] is under 20 µM; in experiment [8] it was 3 µM; in experiment [9] it was under 10 µM; in experiment [10], under 10 µM; in experiment [11], 0.33 µM.

Consider `O=c1cc(-c2ccc(CCC[P+](c3ccccc3)(c3ccccc3)c3ccccc3)cc2)oc2c(O)c(O)ccc12` [SND200, (3-(4-(7,8-Dihydroxy-4-oxo-4H1-chromen-2-yl)phenyl)propyl)triphenylphosphonium bromide], for which the 50% inhibitory concentration (IC50) in [12] was determined as 1.33 µM; in experiment [5], 15.1 µM.
